ChEMBL document CHEMBL5143698, “Phenotypic screen identifies FOXO inhibitor to counteract maturation and promote expansion of human iPS cell-derived cardiomyocytes” (Bioorg Med Chem, 2022)
Activity calls are given as the source filed them. The calls are words filed in the database; no cut-off is given here.

Assays:
iPSC-CM [1] = experiment: Upregulation of IRX4 gene expression in human iPSC derived cardiomyocytes aat 100 nM incubated for 5 days by qRT-PCR analysis; format: functional, cell-based; conditions: time 5.0 day
iPSC-CM [2] = experiment: Downregulation of ANP protein level in human iPSC derived cardiomyocytes at 100 nM incubated for 3 weeks by immunofluorescence assay; format: functional, cell-based
[3] = Cytotoxicity against human iPSC derived cardiomyocytes at >=500 nM incubated for 4 days without passaging by Hoechst staining based analysis; format: toxicity, cell-based; conditions: ipsc-cm, 96 h, 0.5 µM, time 4 day
iPSC-CM [4] = experiment: Upregulation of MYH6 gene expression in human iPSC derived cardiomyocytes at 100 nM incubated for 5 days by qRT-PCR analysis; format: functional, cell-based; conditions: time 5.0 day
iPSC-CM [5] = experiment: Downregulation of MYL2 gene expression in human iPSC derived cardiomyocytes measured after two passages following incubation for 5 days by qRT PCR analysis; format: functional, cell-based; conditions: dose 3-100 nM, time 5.0 day, DDE = dose-dependent effect
[6] = Antiproliferative activity against human iPSC derived cardiomyocytes assessed as fold increase in cell number at 100 nM incubated for 4 days without passaging by Hoechst staining based analysis; format: functional, iPSC-CM; conditions: time 4 day
iPSC-CM [7] = experiment: Downregulation of NPPA gene expression in human iPSC derived cardiomyocytes measured after two passages following incubation for 5 days by qRT PCR analysis; format: functional, cell-based; conditions: dose 3-100 nM, time 5.0 day, DDE = dose-dependent effect
Forkhead box protein O1 = Forkhead box protein O1 (Homo sapiens, UniProt Q12778); experiment: Inhibition of FOXO-1 in human HepG2 cells incubated for 20 hrs by Renilla luciferase reporter gene assay; format: cell-based
Forkhead box protein O1, sequence (Q12778 whole entry): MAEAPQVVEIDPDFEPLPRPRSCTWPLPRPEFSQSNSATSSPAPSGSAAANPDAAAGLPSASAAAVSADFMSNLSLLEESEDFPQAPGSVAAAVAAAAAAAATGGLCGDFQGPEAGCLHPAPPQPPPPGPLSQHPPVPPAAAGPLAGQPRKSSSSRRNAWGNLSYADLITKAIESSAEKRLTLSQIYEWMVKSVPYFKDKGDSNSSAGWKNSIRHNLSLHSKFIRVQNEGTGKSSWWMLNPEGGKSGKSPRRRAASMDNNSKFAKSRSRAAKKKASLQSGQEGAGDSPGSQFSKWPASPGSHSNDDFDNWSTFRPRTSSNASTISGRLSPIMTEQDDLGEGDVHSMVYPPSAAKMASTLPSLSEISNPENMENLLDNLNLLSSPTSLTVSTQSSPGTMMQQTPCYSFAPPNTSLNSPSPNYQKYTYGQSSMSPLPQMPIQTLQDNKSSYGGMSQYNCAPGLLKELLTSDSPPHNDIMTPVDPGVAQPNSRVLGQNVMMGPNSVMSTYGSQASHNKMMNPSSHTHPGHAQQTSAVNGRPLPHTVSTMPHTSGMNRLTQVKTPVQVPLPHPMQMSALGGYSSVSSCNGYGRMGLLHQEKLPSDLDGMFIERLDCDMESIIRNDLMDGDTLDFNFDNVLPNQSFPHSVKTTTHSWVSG

iPSC-CM [8] = experiment: Downregulation of MLC2v protein level in human iPSC derived cardiomyocytes at 100 nM incubated for 3 weeks by immunofluorescence assay; format: functional, cell-based
iPSC-CM [9] = experiment: Downregulation of NPPA gene expression in human iPSC derived cardiomyocytes at 100 nM incubated for 5 days by qRT-PCR analysis; format: functional, cell-based; conditions: time 5.0 day
iPSC-CM [10] = experiment: Downregulation of MYL2 gene expression in human iPSC derived cardiomyocytes at 100 nM incubated for 5 days by qRT-PCR analysis; format: functional, cell-based; conditions: time 5.0 day
iPSC-CM [11] = experiment: Downregulation of MYH7 gene expression in human iPSC derived cardiomyocytes measured after two passages following incubation for 5 days by qRT PCR analysis; format: functional, cell-based; conditions: dose 3-100 nM, time 5.0 day, DDE = dose-dependent effect
iPSC-CM [12] = experiment: Downregulation of MYH7 gene expression in human iPSC derived cardiomyocytes at 100 nM incubated for 5 days by qRT-PCR analysis; format: functional, cell-based; conditions: time 5.0 day
iPSC-CM [13] = experiment: Upregulation of TBX2 gene expression in human iPSC derived cardiomyocytes at 100 nM incubated for 5 days by qRT-PCR analysis; format: functional, cell-based; conditions: time 5.0 day
[14] = (§1) Antiproliferative activity against human iPSC derived cardiomyocytes assessed as increase in cell number by measuring fold change after 3 passages at 100 nM incubated for 2 days by Hoechst staining based analysis; format: functional, iPSC-CM; conditions: time 2 day
iPSC-CM [15] = experiment: as §1; format: functional; conditions: time 2.0 day

In the case of CCn1cc(C(=O)O)c(=O)c2c(N)c(F)c(NC3CCCCC3)cc21, the Activity (iPSC-CM [1]) is reported as “Active”, the Activity (iPSC-CM [2]) is reported as “Active” and the Activity [3] is reported as “Toxic”. The Activity (iPSC-CM [4]) was “Active”, the Activity (iPSC-CM [5]) was “Dde” and the “fold change (FC)” value [6] was >3. The Activity (iPSC-CM [7]) was “Dde”, the IC50 (Forkhead box protein O1) was 33 nM and the Activity (iPSC-CM [8]) was “Active”. The Activity (iPSC-CM [9]) was “Active”, the Activity (iPSC-CM [10]) was “Active” and the Activity (iPSC-CM [11]) was “Dde”. The Activity (iPSC-CM [12]) was “Active”, the Activity (iPSC-CM [13]) was “Active” and the “fold change (FC)” value [14] was >30. For the same compound, the Activity (iPSC-CM [15]) was “Active”.
